We go through six molecules from paper PMC4171207 (Antiviral research, 2014).

Series [1] concerns 5-FU catabolism. The experiment in a line: LC-MS/MS analysis of 5-fluorouracil metabolism in mice. The format is in vivo, BALB/c mice. The note with it: for 5-FU concentration in plasma: 5-FU 30 mg/kg i.v. plus test drug 10 mg/kg p.o.
Series [2] deals with VZV-BAC-Luc. As to the kind of experiment: Drug synergy assay. The format is cell-based, varicella-zoster virus. The note with it: HFFs, 48 h, VZV yield by bioluminescence.
The test system of series [3] is VZV-BAC-Luc. The format is in vivo, varicella-zoster virus. The note with it: SCID-Hu mice.
The test system of series [4] is VZV-BAC-Luc. As to the kind of experiment: VZV yield in HFFs by quantitative real-time PCR. The format is cell-based, varicella-zoster virus.
For series [5], the system named is human foreskin fibroblasts (HFFs). The experiment in a line: Neutral red cytotoxicity assay in HFFs. The format is cell-based.
The subject of series [6] is VZV-BAC-Luc. The experiment in a line: VZV-BAC-Luc in skin organ culture. The format is cell-based, varicella-zoster virus. The note with it: read-out: EC50 in SOC; 6 dpi, bioluminescence imaging, mean ± SD.
For series [7] the following is noted: for Ratio to Plasma: 2 h post final treatment.
In series [8] the test system is VZV-BAC-Luc. As to the kind of experiment: microbe, parasite or virus in culture. The note with it: for SI (CC50/EC50): selectivity index in HFFs. The format is cell-based, varicella-zoster virus.

Counter-ions that a name gives are not always drawn. Like-named read-outs stand apart in the source and are kept apart here. Marks after values point to notes of the source that are not given here. Some results are limits rather than exact numbers.

Regarding `O=c1[nH]cc(F)c(=O)[nH]1` [5-FU, 5-fluorouracil], the “5-FU in plasma (average AUC)” value in series [1] (30 min, 5-FU alone 30 mg/kg i.v.) is given as 1246 nM. Besides, in series [1] (60 min, 5-FU alone 30 mg/kg i.v.), the 5-FU in plasma result was “undetectable”.

Consider `Nc1nc2c(ncn2COCCO)c(=O)[nH]1` [ACV, Acyclovir, reference compound], for which, for the setting “120 mg/kg/day”, the Mortality is reported as 0/11.

For `O=c1[nH]c(=O)n([C@H]2C[C@H](O)[C@@H](CO)O2)cc1/C=C/Br` [BVdU, (E)-5-(2-Bromovinyl)-2′-deoxyuridine], the “5-FU concentration in plasma” value in series [1] (30 min) stood at 945 nM; in [1] (60 min), 685 nM. The “effect on 5-FU catabolism” value in [1] (mice, 10 mg/kg p.o. with 5-FU 30 mg/kg i.v.) was “interfered with 5-FU catabolism”.

As for `O=c1ccn(C2OC(CO)OC2/C=C/Br)c(=O)[nH]1` [L-BHDU (1), β-L-1-[5-(E-2-Bromovinyl)-2-(hydroxymethyl)-1,3-(dioxolan-4-yl)] uracil], the “interaction with ACV, BVdU and PFA” value in [2] was “antagonized the activity of ACV, BVdU and foscarnet”. Also, the “Ave. VZV Growth Rate (± SD)” value in series [3] (8 mg/kg/day oral gavage) was 0.33 (0.03) Log10(photons/s/day); in [3] (8 mg/kg/day oral gavage, listed as L-BHDU), 0.33 ± 0.03 Log10(photons/s/day); in series [3] (15 mg/kg/day oral gavage), 0.25 (0.09) ^* Log10(photons/s/day); in series [3] (15 mg/kg/day oral gavage, listed as L-BHDU), 0.25 ± 0.9 Log10(photons/s/day); in series [3] (150 mg/kg/day oral gavage), 0.22 (0.06) ^* Log10(photons/s/day); in series [3] (150 mg/kg/day oral gavage, listed as L-BHDU), 0.22 ± 0.6 Log10(photons/s/day). Moreover, the “VZV genome copy number” value in series [4] was “reduced VZV genome copy number”. The EC50 in series [4] (read-out: EC50 determined by qPCR, VZV genomes) is about 0.07 µM; in [6], 0.24 ± 0.02 µM; in series [8] (read-out: EC50 in HFFs, 48 hpi, bioluminescence imaging, mean ± SD), 0.22 ± 0.01 µM. The “cytotoxicity at 200 μM” value in [5] (200 μM, 3 days) is given as “noncytotoxic”. The same molecule showed a CC50 in [5] (72 h, neutral red assay) of over 200 µM. Also, the “concentration in human skin implants relative to EC50” value in series [7] (8 mg/kg/day) is 10 fold. In addition, the “Ratio to Plasma” value is 0.4 (0.3) in [7] (Brain, 8 mg/kg/day); 0.1 (0.03) in series [7] (Brain, 150 mg/kg/day); 2.9 (2.5) in series [7] (Heart, 8 mg/kg/day); 1.0 (0.2) in [7] (Heart, 150 mg/kg/day); 5.1 (3.1) in [7] (Kidney, 8 mg/kg/day); 2.1 (0.4) in series [7] (Kidney, 150 mg/kg/day). Moreover, the “Ratio to Plasma” value in series [7] (Liver, 8 mg/kg/day) is 4.5 (1.1); in series [7] (Liver, 150 mg/kg/day), 1.5 (0.3); in series [7] (Lung, 8 mg/kg/day) it was 11.2 (5.7); in series [7] (Lung, 150 mg/kg/day) it was 2.3 (0.5); in [7] (Plasma, 8 mg/kg/day), 1; in [7] (Plasma, 150 mg/kg/day), 1. For the same molecule, the “Ratio to Plasma” value in [7] (Skin (Human) xenograft, 8 mg/kg/day) is reported as 3.1 (2.6); in series [7] (Skin (Mouse), 8 mg/kg/day), 3.0 (2.5); in series [7] (Skin (Mouse), 150 mg/kg/day) it was 0.9 (0.2); in series [7] (Spleen, 8 mg/kg/day), 2.1 (1.3); in series [7] (Spleen, 150 mg/kg/day) it was 1.4 (0.2). In addition, the “SI (CC50/EC50)” value in series [8] and in [8] (listed as L-BHDU) was over 909 each time. In addition, the Mortality is reported as 1/5 (8 mg/kg/day), 0/5 (15 mg/kg/day) and 0/5 (150 mg/kg/day). Moreover, the “overt toxicity in vivo” value (mouse, in vivo) was “No overt toxicity”. Further, under “mouse, in vivo”, the weight loss result was “moderate weight loss”.

Regarding `O=C(O)P(=O)(O)O` [PFA, sodium phosphonoformate tribasic hexahydrate, reference compound], in series [8] (Human alphaherpesvirus 3, read-out: EC50 in HFFs), the EC50 was found to be 40 µM.

On to `CC(C)[C@H](N)C(=O)OCCOCn1cnc2c(=O)[nH]c(N)nc21` [VACV, Valacyclovir HCl, reference compound], for which the “Ave. VZV Growth Rate (± SD)” value was 0.40 (0.09) Log10(photons/s/day) in series [3] (120 mg/kg/day oral gavage); 0.27 (0.07) ^* Log10(photons/s/day) in series [3] (200 mg/kg/day oral gavage); 0.27 ± 0.07 Log10(photons/s/day) in series [3] (200 mg/kg/day oral gavage, listed as Valacyclovir). Also, the “effect on VZV replication” value in [3] (120 mg/kg/day) is reported as “had no effect on VZV replication”. Also, the “ABWD (±SD), Average Body Weight Difference from Days 0–7” value runs as follows: (120 mg/kg/day) −2.9 (1.2) ^* grams; (200 mg/kg/day) −3.6 (1.5) ^* grams. Further, the Mortality is listed as 0/11 (120 mg/kg/day) and 0/10 (200 mg/kg/day).
